Entries after “also recorded” stand apart in the source; their conditions may differ.
Assays:
[1] = tested on: LSK cells; details: cited from earlier work
[2] = tested on: c-Kit+ cells; assay: Colony formation assay in methylcellulose with hematopoietic cytokines; format: cell-based, mice; details: c-Kit+ cells treated 3 days ex vivo, then methylcellulose 10-14 days
Description: The primary cultures are shown.
Methylcellulose culture: Sorted GFP^+ BM cells were plated in individual wells of 6-well plates (Corning) containing 550 μl 1.0% methylcellulose (Stem Cell Technologies) as previously described (Trowbridge, et al., 2006, Nature. 441:518-522). The methylcellulose was supplemented with 1% penicillin/streptomycin (Gibco; Invitrogen), 50 ng/ml SCF, 10 ng/ml IL-3, 10 ng/ml IL-6, and 3 U/ml erythropoietin. Colonies were incubated at 37° C. in humidified incubators at 5% CO2. Colony formation was scored by counting all colonies of greater than 30 viable cells after 10-14 days of culture.
To test whether progenitor cells are increased by lithium treatment, colony formation assays were performed. […] To confirm these studies, bone marrow cells were isolated from lithium treated mice and cultured in methylcellulose with hematopoietic cytokines.

[3] = tested on: LSK cells (HSCs/HPCs)

bone marrow morphology / architecture ([3]; treated versus control marrows)	SMILES	increase in LSK cells ([1]; treated mice, Trowbridge et al. 2006)	hematopoietic colony number [2]	HSCs measured by long-term competitive repopulation assay ([1]; mice, Goessling et al. 2009)	overall marrow cellularity ([3]; mice treated 2 weeks, vs control)	number of LSK cells in bone marrow ([3]; mice treated 2 weeks, vs control (NaCl for lithium), FCM)
	Cc1c[nH]c(-c2cnc(NCCNc3ccc(C#N)cn3)nc2-c2ccc(Cl)cc2Cl)n1 [CHIR-911]	approximately 50%				
	COc1ccc(CNC(=O)Nc2ncc([N+](=O)[O-])s2)cc1 [AR-A014418]		marked increase; also recorded: increased			
no observable change	O=C1Nc2cc(Br)ccc2/C1=C1/Nc2ccccc2/C1=N\O [6BIO, 6-bromo-indirubin 3′-oxime]		marked increase; also recorded: increased	increases HSCs	increased marrow cellularity; also recorded: parallel increase	pronounced increase; also recorded: increased
